Data taken from paper PMC6017090, “Design, Synthesis and Biological Evaluation of Novel N-Pyridyl-Hydrazone Derivatives as Potential Monoamine Oxidase (MAO) Inhibitors” (Molecules : A Journal of Synthetic Chemistry and Natural …, 2018).

Tests used:
MAO-A enzyme [1] = biological target: T1, MAO-A enzyme (Homo sapiens, UniProt P21397); test: Enzyme kinetic studies (Lineweaver-Burk plots) on MAO-A; type: biochemical
T1 construct: purchased Sigma-Aldrich
T1 sequence (P21397 1-527): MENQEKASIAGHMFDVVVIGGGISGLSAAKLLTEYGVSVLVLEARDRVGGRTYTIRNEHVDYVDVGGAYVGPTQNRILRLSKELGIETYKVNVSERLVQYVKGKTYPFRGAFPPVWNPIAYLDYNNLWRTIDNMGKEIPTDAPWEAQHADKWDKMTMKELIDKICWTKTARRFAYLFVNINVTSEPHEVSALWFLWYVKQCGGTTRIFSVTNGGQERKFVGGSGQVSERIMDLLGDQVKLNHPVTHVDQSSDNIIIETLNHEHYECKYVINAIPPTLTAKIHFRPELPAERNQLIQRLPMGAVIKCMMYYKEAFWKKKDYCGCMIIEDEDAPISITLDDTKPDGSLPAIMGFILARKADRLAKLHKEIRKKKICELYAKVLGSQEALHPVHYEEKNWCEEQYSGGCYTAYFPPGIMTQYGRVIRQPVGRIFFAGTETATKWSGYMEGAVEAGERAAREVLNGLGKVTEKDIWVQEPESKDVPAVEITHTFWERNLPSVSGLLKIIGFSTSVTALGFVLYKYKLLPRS
Procedure: The same materials were used for the MAO-inhibition assay. Compound 2j was prepared at the IC50 concentration calculated in the enzyme assay and then added to the wells (100 μL/well). The stock solution (25 mM) of kynuramine in 0.1 M phosphate buffer was diluted to final concentrations of 40, 20, 10, 5, 2.5 and 1.25 μM and then added to the wells (50 μL/well) that contained the test compound. The MAO-A enzyme was added to the plate (50 μL/well), incubated for 20 min at 37 °C, and the plate was read at excitation/emission wavelengths of 310 and 340 nm. The control measurement without the inhibitor was determined simultaneously. The results were analyzed by using Lineweaver-Burk plots in Microsoft Office Excel 2013 (Microsoft Inc., Redmond, WA, USA).
1/V: 1/rate of reaction [1/(nmoles/min/mg protein)], 1/S: 1/substrate concentration (1/µM).

human recombinant MAO-B = biological target: T2, human recombinant MAO-B (Homo sapiens, UniProt P27338); test: MAO activity assay (fluorometric, kynuramine substrate), MAO-B; type: biochemical; conditions: for inhibition at 1000 µM: 10^−3 M; for inhibition at 1000 µM / inhibition at 100 µM: ± S.D.; for inhibition at 100 µM: 10^−4 M
T2 construct: purchased Sigma-Aldrich
T2 sequence (P27338 1-520): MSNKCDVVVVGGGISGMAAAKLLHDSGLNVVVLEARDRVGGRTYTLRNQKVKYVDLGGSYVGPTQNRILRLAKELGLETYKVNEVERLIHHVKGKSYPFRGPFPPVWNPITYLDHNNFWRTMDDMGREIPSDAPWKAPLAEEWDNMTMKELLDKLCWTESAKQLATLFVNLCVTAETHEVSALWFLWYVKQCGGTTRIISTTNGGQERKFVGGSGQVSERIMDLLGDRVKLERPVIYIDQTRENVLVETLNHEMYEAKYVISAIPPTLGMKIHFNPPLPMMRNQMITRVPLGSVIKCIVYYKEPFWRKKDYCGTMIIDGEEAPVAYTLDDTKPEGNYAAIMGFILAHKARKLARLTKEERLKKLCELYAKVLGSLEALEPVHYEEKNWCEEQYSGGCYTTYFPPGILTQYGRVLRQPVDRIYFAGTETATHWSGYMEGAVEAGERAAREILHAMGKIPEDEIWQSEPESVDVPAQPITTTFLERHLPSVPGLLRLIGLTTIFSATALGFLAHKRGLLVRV
Procedure: (§1) The enzyme activity assay was performed in accordance with the procedure reported by Matsumoto et al. with slight modifications. All materials used in the enzymatic assays were purchased from Sigma-Aldrich Chemicals. All pipetting protocols in the assay were performed by the Biotek Precision robotic system (BioTek Instruments, Inc., Winooski, VT, USA). To prevent the effect of light MAO enzymes, the assay was performed in 96-well black plates. Phosphate buffer (0.1 M, pH = 7.4) was used for the preparation of 5 mg/mL stock solutions of the human recombinant MAO-A and MAO-B enzymes. The enzyme stock solutions were further diluted with an assay buffer to obtain final concentrations of 0.006 mg/mL MAO-A and 0.015 mg/mL MAO-B. Kynuramine was dissolved in sterilized distilled water to obtain a 25 mM stock solution and then diluted with the assay buffer to obtain final concentrations of 40 μM for the MAO-A enzyme and 20 μM for the MAO-B enzyme. […] The addition of the diluted compounds was followed by the addition of either the MAO-A or MAO-B enzymes (50 μL/well). […] Fluorescence was read from top by using BioTek-Synergy H1 multimode microplate reader at the excitation/emission wavelengths of 310 and 380 nm.
(§2) The IC50 values (Table 2) were calculated from the plots of enzyme activity against concentrations, and the regression analyses were computed in GraphPad Prism Version 6 (GraphPad Software, Inc., La Jolla, CA, USA).

MAO-A enzyme [2] = biological target: T1, MAO-A enzyme; test: MAO activity assay (fluorometric, kynuramine substrate), MAO-A; type: biochemical; conditions: for inhibition at 1000 µM: 10^−3 M; for inhibition at 1000 µM / inhibition at 100 µM: ± S.D.; for inhibition at 100 µM: 10^−4 M; for inhibition at 10 µM: 10^−5 M; for inhibition at 1 µM: 10^−6 M; for inhibition at 0.1 µM: 10^−7 M; for inhibition at 0.01 µM: 10^−8 M; for inhibition at 0.001 µM: 10^−9 M
Procedure: as §1, with “Phosphate buffer (0.1 M, pH = 7.4) was used for the preparation of 5 mg/mL stock solutions of the human recombinant MAO-A and MAO-B enzymes.” left out
as §2

[3] = Cytotoxicity test (MTT assay); conditions: mouse, NIH/3T3 mouse embryonic fibroblast cells (ATCC CRL-1658)
Procedure: The MTT assay was performed as previously described [21, 22, 23, 24, 25, 26].

SMILES | Vmax (MAO-A enzyme [1]; MAO-A, kynuramine substrate, nonlinear regression) [nmol/min/mg protein] | Nature of MAO-A inhibition (Lineweaver–Burk plots) (MAO-A enzyme [1]; compound at IC50 concentration, kynuramine 40-1.25 μM) | IC50 (human recombinant MAO-B) [µM] | inhibition at 1000 µM (human recombinant MAO-B) [%] | inhibition at 100 µM (human recombinant MAO-B) [%] | inhibition at 10 µM (human recombinant MAO-B; 10^−5 M) [%] | inhibition at 1 µM (human recombinant MAO-B; 10^−6 M) [%] | inhibition at 0.1 µM (human recombinant MAO-B; 10^−7 M) [%] | inhibition at 0.01 µM (human recombinant MAO-B; 10^−8 M) [%] | inhibition at 0.001 µM (human recombinant MAO-B; 10^−9 M) [%] | IC50 (MAO-A enzyme [2]) [µM] | inhibition at 1000 µM (MAO-A enzyme [2]) [%] | inhibition at 100 µM (MAO-A enzyme [2]) [%] | inhibition at 10 µM (MAO-A enzyme [2]) [%] | inhibition at 1 µM (MAO-A enzyme [2]) [%] | inhibition at 0.1 µM (MAO-A enzyme [2]) [%] | inhibition at 0.01 µM (MAO-A enzyme [2]) [%] | inhibition at 0.001 µM (MAO-A enzyme [2]) [%] | melting point [°C] | IC50 [3] [µM]
CCOc1ccc([N+](=O)[O-])c(NN=Cc2ccc([N+](=O)[O-])cc2)n1 [Compound 2f, 6-Ethoxy-3-nitro-2-[2-(4-nitrobenzylidene)hydrazinyl]pyridine] |  |  |  | 7.39 ± 0.31 | 0.55 ± 0.02 |  |  |  |  |  |  | 65 ± 1.23 | 16 ± 0.56 |  |  |  |  |  | 281 | 
CCOc1ccc([N+](=O)[O-])c(NN=Cc2cccs2)n1 [Compound 2m, 6-Ethoxy-3-nitro-2-[2-((thiophen-2-yl)methylene)hydrazinyl]pyridine] |  |  |  | 34.4 ± 0.88 | 21.2 ± 0.8 |  |  |  |  |  |  | 41.4 ± 1.13 | 36 ± 1.15 |  |  |  |  |  | 152 | 
CCOc1ccc([N+](=O)[O-])c(NN=Cc2ccc(C(F)(F)F)cc2)n1 [Compound 2i, 6-Ethoxy-2-[2-(4-trifluoromethylbenzylidene)hydrazinyl]-3-nitropyridine] |  |  |  | 38.3 ± 1.19 | 29.1 ± 0.99 |  |  |  |  |  | 13.1 | 55.7 ± 1.26 | 51.7 ± 1.18 | 31.2 ± 1.2 | 21.1 ± 0.84 | 15.4 ± 0.62 | 12.7 ± 0.43 | 11.6 ± 0.38 | 165 | > 1000
CCOc1ccc([N+](=O)[O-])c(NN=Cc2ccc(C)cc2)n1 [Compound 2d, 6-Ethoxy-2-[2-(4-methylbenzylidene)hydrazinyl]-3-nitropyridine] |  |  |  | 0.52 ± 0.02 | 0.18 ± 0.006 |  |  |  |  |  |  | 20.1 ± 0.41 | 11.4 ± 0.28 |  |  |  |  |  | 171 | 

Continued, in another order:

Vmax (MAO-A enzyme [1]; MAO-A, kynuramine substrate, nonlinear regression) [nmol/min/mg protein] | Nature of MAO-A inhibition (Lineweaver–Burk plots) (MAO-A enzyme [1]; compound at IC50 concentration, kynuramine 40-1.25 μM) | IC50 (human recombinant MAO-B) [µM] | inhibition at 1000 µM (human recombinant MAO-B) [%] | inhibition at 100 µM (human recombinant MAO-B) [%] | inhibition at 10 µM (human recombinant MAO-B; 10^−5 M) [%] | inhibition at 1 µM (human recombinant MAO-B; 10^−6 M) [%] | inhibition at 0.1 µM (human recombinant MAO-B; 10^−7 M) [%] | inhibition at 0.01 µM (human recombinant MAO-B; 10^−8 M) [%] | inhibition at 0.001 µM (human recombinant MAO-B; 10^−9 M) [%] | IC50 (MAO-A enzyme [2]) [µM] | inhibition at 1000 µM (MAO-A enzyme [2]) [%] | inhibition at 100 µM (MAO-A enzyme [2]) [%] | inhibition at 10 µM (MAO-A enzyme [2]) [%] | inhibition at 1 µM (MAO-A enzyme [2]) [%] | inhibition at 0.1 µM (MAO-A enzyme [2]) [%] | inhibition at 0.01 µM (MAO-A enzyme [2]) [%] | inhibition at 0.001 µM (MAO-A enzyme [2]) [%] | melting point [°C] | SMILES | IC50 [3] [µM]
1.903 | mixed type inhibitor | 9.3 | 63.8 ± 1.28 | 52.7 ± 1.29 | 40.2 ± 1.12 | 31.6 ± 1.08 | 25 ± 0.95 | 21.9 ± 0.82 | 12.5 ± 0.51 | 6.25 | 75.7 ± 1.85 | 69.8 ± 1.43 | 56.1 ± 1.27 | 43.2 ± 1.06 | 38.8 ± 1.07 | 32.7 ± 0.82 | 26.7 ± 0.96 | 158 | CCOc1ccc([N+](=O)[O-])c(NN=Cc2ccc(O)cc2)n1 [Compound 2j, 4-[(2-(6-Ethoxy-3-nitropyridin-2-yl)hydrazono)methyl]phenol] | > 1000
 |  |  | 0.43 ± 0.02 | 0.11 ± 0.004 |  |  |  |  |  |  | 49 ± 1.22 | 0.46 ± 0.01 |  |  |  |  |  | 211 | CCOc1ccc([N+](=O)[O-])c(NN=Cc2ccc(Cl)cc2)n1 [Compound 2b, 2-[2-(4-Chlorobenzylidene)hydrazinyl]-6-ethoxy-3-nitropyridine] | 
 |  |  | 60.2 ± 1.18 | 0.69 ± 0.03 |  |  |  |  |  |  | 52 ± 1.02 | 7.09 ± 0.18 |  |  |  |  |  | 191 | CCOc1ccc([N+](=O)[O-])c(NN=Cc2ccc(F)cc2)n1 [Compound 2c, 6-Ethoxy-2-[2(4-fluorobenzylidene)hydrazinyl]-3-nitropyridine] | 
